The source of these data is PMC7715017, “Conjugation of Synthetic Polyproline Moietes to Lipid II Binding Fragments of Nisin Yields Active and Stable Antimicrobials” (Frontiers in Microbiology, 2020).

In test [1] the test system is L. lactis NZ9000 (pEmpty). Particulars: broth microdilution (Wiegand et al. 2008); samples in 0.05% acetic acid; strain with empty plasmid. On the procedure:
(§1) All samples were resuspended in 0.05% aqueous acetic acid solution and the peptide amount was quantified by HPLC according to Schmitt et al. ([Schmitt et al., 2019]). The indicator strains MW2-MRSA, Enterococcus faecium, Listeria monocytogenes, and Lactococcus lactis were first streaked on GM17 plate and cultured overnight. The peptide samples were diluted with 0.05% acetic acid to a concentration of 40–320 μM (depending on the estimated activity of the peptide and the strain tested). The MIC value test was performed according to [Wiegand et al. (2008)].
(§2) M. flavus was used as the indicator strain for the agar well diffusion assay, and 0.15 nmol of each sample was added to each well (Figure 3). […] Antimicrobial activity of all compounds was tested by growth inhibition assays against two clinically relevant Gram-positive pathogens, i.e., methicillin resistant S. aureus and vancomycin resistant E. faecium, as well as L. monocytogenes, and L. lactis. […] For this experiment, an activity test was performed against the NSR producing strain L. lactis NZ9000 (pNSR).

For test [2], the system named is Listeria monocytogenes LMG 10470. On the procedure: as §1, §2
Test [3] relates to MW2-MRSA (Staphylococcus aureus MW2, methicillin resistant). On the procedure:
as §1, §2

Test [4] has as its system Enterococcus faecium LMG 16003 (vancomycin resistant, VRE). As for the experimental part: as §1, §2
Where [5] appears, read: MW2- ( MW2, methicillin resistant).
The mark [6] stands for this setting: broth microdilution (Wiegand et al. 2008), samples in 0.05% acetic acid, quantified by HPLC.

The structures appear in SMILES notation. ≈ marks a conversion by molar mass, not a printed value. Like-named read-outs stand apart in the source and are kept apart here. Non-standard residues stand in square brackets, D forms with d. Residues, ends and D or L forms follow the SMILES beside them. *: point of attachment. Oic = O=C(O)[C@@H]1C[C@@H]2CCCC[C@@H]2N1; Pent4ynoyl = C#CCCC(=O)*

Consider `C=C1NC(=O)[C@H]([C@@H](C)CC)NC(=O)[C@H](NC(=O)/C(=C/C)NC(=O)[C@@H](N)[C@@H](C)CC)CSC[C@@H](C(=O)N[C@H]2C(=O)N3CCC[C@H]3C(=O)NCC(=O)N[C@H](C(=O)N[C@@H](CCCCN)C(=O)NCCCn3cc(CCC(=O)N4[C@H](C(=O)N5[C@H](C(=O)N6[C@H](C(=O)N7[C@H](C(=O)N8[C@H](C(=O)N9[C@H](C(=O)N%10[C@H](C(=O)N%11[C@H](C(=O)N%12[C@H](C(=O)O)C[C@@H]%13CCCC[C@@H]%13%12)C[C@@H]%12CCCC[C@@H]%12%11)C[C@@H]%11CCCC[C@@H]%11%10)C[C@@H]%10CCCC[C@@H]%109)C[C@@H]9CCCC[C@@H]98)C[C@@H]8CCCC[C@@H]87)C[C@@H]7CCCC[C@@H]76)C[C@@H]6CCCC[C@@H]65)C[C@@H]5CCCC[C@@H]54)nn3)CS[C@H]2C)NC(=O)[C@H](CC(C)C)NC1=O` [Nisin AB + O9], for which the “MIC value, L. lactis NZ9000 (pEmpty)” value in test [1] was 5.0 μM.

As for `C#CCCC(=O)N1[C@H](C(=O)N2[C@H](C(=O)N3[C@H](C(=O)N4[C@H](C(=O)N5[C@H](C(=O)N6[C@H](C(=O)N7[C@H](C(=O)N8[C@H](C(=O)N9[C@H](C(=O)O)C[C@@H]%10CCCC[C@@H]%109)C[C@@H]9CCCC[C@@H]98)C[C@@H]8CCCC[C@@H]87)C[C@@H]7CCCC[C@@H]76)C[C@@H]6CCCC[C@@H]65)C[C@@H]5CCCC[C@@H]54)C[C@@H]4CCCC[C@@H]43)C[C@@H]3CCCC[C@@H]32)C[C@@H]2CCCC[C@@H]21` [O9, Pentynyl-(Oic)9-OH] (Pent4ynoyl-[Oic][Oic][Oic][Oic][Oic][Oic][Oic][Oic][Oic]-OH), in test [2] (LMG 10470), the “MIC value, L. monocytogenes” value was greater than 320 µM. Moreover, the “MIC value, MW2-MRSA” value in test [3] (setting [5]) is greater than 320 µM. Also, in test [4] (LMG 16003), the “MIC value, E. faecium” value is greater than 320 µM.

As to `C=C1NC(=O)[C@H]([C@@H](C)CC)NC(=O)[C@H](NC(=O)/C(=C/C)NC(=O)[C@@H](N)[C@@H](C)CC)CSC[C@@H](C(=O)N[C@H]2C(=O)N3CCC[C@H]3C(=O)NCC(=O)N[C@H](C(=O)N[C@@H](CCCCN)C(=O)N[C@H]3C(=O)NCC(=O)N[C@@H](C)C(=O)N[C@@H](CC(C)C)C(=O)N[C@@H](CCSC)C(=O)NCC(=O)N[C@H](C(=O)N[C@@H](CC(N)=O)C(=O)NCCCn4cc(CCC(=O)N5[C@H](C(=O)N6[C@H](C(=O)N7[C@H](C(=O)O)C[C@@H]8CCCC[C@@H]87)C[C@@H]7CCCC[C@@H]76)C[C@@H]6CCCC[C@@H]65)nn4)CS[C@H]3C)CS[C@H]2C)NC(=O)[C@H](CC(C)C)NC1=O` [Nisin ABC + O3], the “MIC value, L. monocytogenes” value in test [2] (LMG 10470) is greater than 80 µM. Besides, in test [1], the “MIC value, L. lactis NZ9000 (pEmpty)” value is 5.0 μM. For the same molecule, the “MIC value, MW2-MRSA” value in test [3] (setting [5]) is greater than 80 µM. For the same molecule, in test [4] (LMG 16003), the “MIC value, E. faecium” value is 20 µM.

`C=C1NC(=O)[C@H]([C@@H](C)CC)NC(=O)[C@H](NC(=O)/C(=C/C)NC(=O)[C@@H](N)[C@@H](C)CC)CSC[C@@H](C(=O)N[C@H]2C(=O)N3CCC[C@H]3C(=O)NCC(=O)N[C@H](C(=O)N[C@@H](CCCCN)C(=O)N[C@H]3C(=O)NCC(=O)N[C@@H](C)C(=O)N[C@@H](CC(C)C)C(=O)N[C@@H](CCSC)C(=O)NCC(=O)N[C@H](C(=O)N[C@@H](CC(N)=O)C(=O)NCCCn4cc(CCC(=O)N5[C@H](C(=O)N6[C@H](C(=O)N7[C@H](C(=O)N8[C@H](C(=O)N9[C@H](C(=O)N%10[C@H](C(=O)N%11[C@H](C(=O)N%12[C@H](C(=O)N%13[C@H](C(=O)O)C[C@@H]%14CCCC[C@@H]%14%13)C[C@@H]%13CCCC[C@@H]%13%12)C[C@@H]%12CCCC[C@@H]%12%11)C[C@@H]%11CCCC[C@@H]%11%10)C[C@@H]%10CCCC[C@@H]%109)C[C@@H]9CCCC[C@@H]98)C[C@@H]8CCCC[C@@H]87)C[C@@H]7CCCC[C@@H]76)C[C@@H]6CCCC[C@@H]65)nn4)CS[C@H]3C)CS[C@H]2C)NC(=O)[C@H](CC(C)C)NC1=O` [Nisin ABC + O9]: the “MIC value, L. monocytogenes” value in test [2] (LMG 10470) is 40 µM. For the same molecule, the “MIC value, L. lactis NZ9000 (pEmpty)” value in test [1] is listed as 5.0 μM. Further, in test [3] (setting [5]), the “MIC value, MW2-MRSA” value was greater than 80 µM. For the same molecule, in test [4] (LMG 16003), the “MIC value, E. faecium” value stood at 10 µM.

Consider `C#CCCC(=O)N1[C@H](C(=O)N2[C@H](C(=O)N3[C@H](C(=O)O)C[C@@H]4CCCC[C@@H]43)C[C@@H]3CCCC[C@@H]32)C[C@@H]2CCCC[C@@H]21` [O3], for which, in test [2] (LMG 10470), the “MIC value, L. monocytogenes” value was greater than 320 µM. Further, in test [3] (setting [5]), the “MIC value, MW2-MRSA” value was greater than 320 µM. Besides, the “MIC value, E. faecium” value in test [4] (LMG 16003) was greater than 320 µM.

Take `C=C1NC(=O)[C@H]([C@@H](C)CC)NC(=O)[C@H](NC(=O)/C(=C/C)NC(=O)[C@@H](N)[C@@H](C)CC)CSC[C@@H](C(=O)N[C@H]2C(=O)N3CCC[C@H]3C(=O)NCC(=O)N[C@H](C(=O)N[C@@H](CCCCN)C(=O)N[C@H]3C(=O)NCC(=O)N[C@@H](C)C(=O)N[C@@H](CC(C)C)C(=O)N[C@@H](CCSC)C(=O)NCC(=O)N[C@H](C(=O)N[C@@H](CC(N)=O)C(=O)O)CS[C@H]3C)CS[C@H]2C)NC(=O)[C@H](CC(C)C)NC1=O` [Nisin ABC, reference compound]: in test [2] (LMG 10470), the “MIC value, L. monocytogenes” value turned out to be 40 µM (≈ 75.2 µg/mL). In addition, the “MIC value, L. lactis NZ9000 (pEmpty)” value in test [1] was 5.0 μM. Besides, in test [3] (setting [5]), the “MIC value, MW2-MRSA” value amounted to 40 µM (≈ 75.2 µg/mL). For the same molecule, in test [4] (LMG 16003), the “MIC value, E. faecium” value worked out at 40 µM (≈ 75.2 µg/mL).

`C=C1NC(=O)[C@H]([C@@H](C)CC)NC(=O)[C@H](NC(=O)/C(=C/C)NC(=O)[C@@H](N)[C@@H](C)CC)CSC[C@@H](C(=O)N[C@H]2C(=O)N3CCC[C@H]3C(=O)NCC(=O)N[C@H](C(=O)N[C@@H](CCCCN)C(=O)NCCCn3cc(CCC(=O)N4[C@H](C(=O)N5[C@H](C(=O)N6[C@H](C(=O)N[C@@H](CCCCN)C(=O)N[C@@H](CCCCN)C(=O)N[C@@H](CCCCN)C(=O)O)C[C@@H]7CCCC[C@@H]76)C[C@@H]6CCCC[C@@H]65)C[C@@H]5CCCC[C@@H]54)nn3)CS[C@H]2C)NC(=O)[C@H](CC(C)C)NC1=O` [Nisin AB + O3K3]: in test [1], the “MIC value, L. lactis NZ9000 (pEmpty)” value was greater than 40 μM.

With `C#CCCC(=O)N1[C@H](C(=O)N2[C@H](C(=O)N3[C@H](C(=O)N4[C@H](C(=O)N5[C@H](C(=O)N6[C@H](C(=O)N[C@@H](CCCCN)C(=O)N[C@@H](CCCCN)C(=O)N[C@@H](CCCCN)C(=O)O)C[C@@H]7CCCC[C@@H]76)C[C@@H]6CCCC[C@@H]65)C[C@@H]5CCCC[C@@H]54)C[C@@H]4CCCC[C@@H]43)C[C@@H]3CCCC[C@@H]32)C[C@@H]2CCCC[C@@H]21` [O6K3] (Pent4ynoyl-[Oic][Oic][Oic][Oic][Oic][Oic]KKK-OH), the “MIC value, L. monocytogenes” value in test [2] (setting [6]) is greater than 80 µM. The “MIC value, L. lactis NZ9000 (pEmpty)” value in test [1] is given as greater than 80 μM. In test [3] (setting [6]), the “MIC value, MW2-MRSA” value is greater than 80 µM. In addition, the “MIC value, E. faecium” value in test [4] (setting [6]) was greater than 80 µM.

As for `C=C1NC(=O)[C@H]([C@@H](C)CC)NC(=O)[C@H](NC(=O)/C(=C/C)NC(=O)[C@@H](N)[C@@H](C)CC)CSC[C@@H](C(=O)N[C@H]2C(=O)N3CCC[C@H]3C(=O)NCC(=O)N[C@H](C(=O)N[C@@H](CCCCN)C(=O)NCCCn3cc(CCC(=O)N4[C@H](C(=O)N5[C@H](C(=O)N6[C@H](C(=O)O)C[C@@H]7CCCC[C@@H]76)C[C@@H]6CCCC[C@@H]65)C[C@@H]5CCCC[C@@H]54)nn3)CS[C@H]2C)NC(=O)[C@H](CC(C)C)NC1=O` [Nisin AB + O3], the “MIC value, L. lactis NZ9000 (pEmpty)” value in test [1] was greater than 40 μM.

Take `C#CCCC(=O)N1[C@H](C(=O)N2[C@H](C(=O)N3[C@H](C(=O)N[C@@H](CCCCN)C(=O)N[C@@H](CCCCN)C(=O)N[C@@H](CCCCN)C(=O)O)C[C@@H]4CCCC[C@@H]43)C[C@@H]3CCCC[C@@H]32)C[C@@H]2CCCC[C@@H]21` [O3K3] (Pent4ynoyl-[Oic][Oic][Oic]KKK-OH): in test [2] (LMG 10470), the “MIC value, L. monocytogenes” value is greater than 160 µM. In test [1], the “MIC value, L. lactis NZ9000 (pEmpty)” value is given as greater than 160 μM. The “MIC value, MW2-MRSA” value in test [3] (setting [5]) was greater than 160 µM. The “MIC value, E. faecium” value in test [4] (LMG 16003) is greater than 160 µM.

In the case of `C#CCCC(=O)N1[C@H](C(=O)N2[C@H](C(=O)N3[C@H](C(=O)N4[C@H](C(=O)N5[C@H](C(=O)N6[C@H](C(=O)O)C[C@@H]7CCCC[C@@H]76)C[C@@H]6CCCC[C@@H]65)C[C@@H]5CCCC[C@@H]54)C[C@@H]4CCCC[C@@H]43)C[C@@H]3CCCC[C@@H]32)C[C@@H]2CCCC[C@@H]21` [O6] (Pent4ynoyl-[Oic][Oic][Oic][Oic][Oic][Oic]-OH), the “MIC value, L. monocytogenes” value in test [2] (LMG 10470) was greater than 320 µM. Further, in test [3] (setting [5]), the “MIC value, MW2-MRSA” value was greater than 320 µM. Further, in test [4] (LMG 16003), the “MIC value, E. faecium” value is greater than 320 µM.

Turning to `C=C1NC(=O)[C@H]([C@@H](C)CC)NC(=O)[C@H](NC(=O)/C(=C/C)NC(=O)[C@@H](N)[C@@H](C)CC)CSC[C@@H](C(=O)N[C@H]2C(=O)N3CCC[C@H]3C(=O)NCC(=O)N[C@H](C(=O)N[C@@H](CCCCN)C(=O)NCCCn3cc(CCC(=O)N4[C@H](C(=O)N5[C@H](C(=O)N6[C@H](C(=O)N7[C@H](C(=O)N8[C@H](C(=O)N9[C@H](C(=O)O)C[C@@H]%10CCCC[C@@H]%109)C[C@@H]9CCCC[C@@H]98)C[C@@H]8CCCC[C@@H]87)C[C@@H]7CCCC[C@@H]76)C[C@@H]6CCCC[C@@H]65)C[C@@H]5CCCC[C@@H]54)nn3)CS[C@H]2C)NC(=O)[C@H](CC(C)C)NC1=O` [Nisin AB + O6], the “MIC value, L. lactis NZ9000 (pEmpty)” value in test [1] is reported as 20 μM.
